Experimental data from BigSolDB 2.1.

CC(C)(C)C(=O)C(Oc1ccc(Cl)cc1)n1cncn1 (stereo not given)
solubility (mole fraction)
Details | 288.15 K | 293.15 K | 298.15 K | 303.15 K | 308.15 K | 313.15 K | 318.15 K | 323.15 K | 328.15 K | 333.15 K
in acetonitrile | 0.011 | 0.0132 | 0.0162 | 0.0196 | 0.0238 | 0.0285 | 0.034 | 0.0407 | 0.0479 | 0.057
in cyclohexane | 0.000445 | 0.00143 | 0.00382 | 0.00873 | 0.0178 | 0.0315 | 0.0489 | 0.0692 | 0.0869 | 0.0986
in n-heptane | 0.00129 | 0.00204 | 0.00321 | 0.00483 | 0.00737 | 0.0111 | 0.0164 | 0.0238 | 0.034 | 0.0491
in n-hexane | 0.000262 | 0.000539 | 0.00104 | 0.00197 | 0.0035 | 0.00592 | 0.00984 | 0.0156 | 0.0233 | 0.0354
in p-xylene | 0.0631 | 0.0846 | 0.112 | 0.147 | 0.188 | 0.239 | 0.299 | 0.372 | 0.456 | 0.553
in toluene | 0.0916 | 0.119 | 0.154 | 0.192 | 0.235 | 0.282 | 0.333 | 0.381 | 0.431 | 0.475
